Reference: patent US5384406A, “Water-soluble biologically active ammonium salts” (ISP Investments Inc., priority 1993, dated 1995)
Like-named read-outs stand apart in the source and are kept apart here.

Columns and labels:
solubility in water = assay: solubility in water
Method: Example 1 was repeated, except that 2 g of heavy water replaced 150 g of methanol solvent, 0.3 g of Dicamba replaced 30 g Dicamba and 0.16 g of AEP replaced 15.8 g of AEP.
(§1) In a 250 ml round bottom flask 15.5 g (0.482 millimole) of a commercial herbicide, imazaquin* (97.4% pure, having an average molecular weight of 311.4) was suspended in 100 g water. To the suspension, 6.1 g (0.469 millimole) of 98.5% pure AEP was added. […] 2-[4,5-dihydro-4-methyl-4-(methylethyl)-5-oxo-1H-imidazol-2-yl]-3-quinoline e carboxylic acid.
To a solution containing 13 g (0.1 mole) AEP (98.5% pure) dissolved in 30 g water in a 100 ml round bottom flask was added at 25° C. and with constant agitation, 16.9 g (0.1 mole) of water insoluble solid phosphonomethyl glycine.
To one liter of water was added 15.42 g of 2,4 D+7.11 g of mecoprop +1.83 g of 90% pure dicamba. After which 13.83 g AEP was added to the mixture. […] To the above solution was added 9 g of polyalkylene oxide modified by polydimethyl siloxane (Silvelt 7607 wetting agent) from Union Carbide. The mixture was stirred and the total weight was adjusted to 3000 g by adding water.

[1] = Method: A solution containing 25 g of the AEP salt of commercial imazaquin in water was prepared from a suspension of 25 g of imazaquin in 50 g water to which was added a stoichiometric amount of AEP (10.2 g) and an additional 15 g of water. The solution was stirred for 30 minutes after which it was filtered and the pH of the filtrate was adjusted to 7.2.
[2] = aqueous solution after filtration, not adjusted
Method: as §1

[3] = tested on: broad leaf plants and perennial weeds; assay: evaluation as aquatic herbicide and broad spectrum growth inhibitor, compared with the isopropyl amine salt of phosphonomethyl glycine; type: in vivo
Method: A suspension of 169 g of phosphonomethyl glycine in 301 g water was prepared and 130 g 98.5% pure AEP was added slowly with stirring until all of the phosphonomethyl glycine dissolved as the AEP salt. The resulting solution, (containing 28% of the active ingredient expressed as the free acid or 49.5% of the active ingredient expressed as the AEP salt) was evaluated as an aquatic herbicide and as a broad spectrum growth inhibitor for broad leaf plants and perennial weeds and compared with the isopropyl amine salt of phosphonomethyl glycine.

## COc1c(Cl)ccc(Cl)c1C(=O)O [reference compound]
Solubility in water
  solubility in water (in words): very poor solubility
Solubility in water; water
  solubility: < 1000 µg/mL

## CC(C)C1(C)N=C(c2nc3ccccc3cc2C(=O)O)NC1=O.NCCN1CCCC1=O (stereo not shown) [Example 3, N-pyrrolidonyl ethyl ammonium salt of imazaquin]
Solubility in water; 0.1 g in 50 g of water
  dissolution of freeze-dried solid in water: dissolved completely
[1]; ambient conditions, stored for 6 months
  storage stability of solution: stable under ambient conditions without any precipitation
[1]; cooling to 0° C., then to room temperature
  precipitation after cooling and reheating: no precipitation was observed
[2]
  pH of the filtrate: 7.2

## NCCN1CCCC1=O.O=C(O)CNCP(=O)(O)O [Example 5, N-pyrrolidonyl ethyl ammonium salt of phosphonomethyl glycerine]
Solubility in water; isolated AEP salt
  soluble in water: more than 50%
[3]
  kill: significantly higher and more permanent kill

## COc1c(Cl)ccc(Cl)c1C(=O)O.NCCN1CCCC1=O [Example 1, N-pyrrolidonyl ethyl ammonium salt of 3,6-dichloro-l-methoxy benzoic acid]
Solubility in water; water
  solubility in water (in words): easily dissolved in 60% water
Solubility in water; water, listed as Example 2
  solubility in water (in words): easily solubilized in water
